Assay results: the NIST ThermoML archive (doi:10.1016/j.jct.2007.08.005)

Columns and labels:
[1] = 308.15 K, 101.33 kPa, Liquid; for speed of sound: Sing-around technique in a fixed-path interferometer; for mass density: Vibrating tube method
[2] = xn = mol fraction of the nth substance listed; conditions: 308.15 K, 101 kPa, Liquid; for excess molar volume: Direct dilatometry; for speed of sound: Sing-around technique in a fixed-path interferometer

O=C1CCCN1 [2-pyrrolidinone]
[1]
Conditions	mass density [kg/m3]	speed of sound [m/s]	viscosity [mPa·s]
–	1097.14	1600	8.922

OCCO [1,2-ethanediol]
[1]
Conditions	speed of sound [m/s]	viscosity [mPa·s]
–	1633.4	11.35

OCCCCCO [1,5-pentanediol] + O=C1CCCN1
[2]
Conditions	excess molar volume [m3/mol]	speed of sound [m/s]	viscosity [mPa·s]
x1 = 0.0022	1e-09	–	–
x1 = 0.009	3e-09	–	–
x1 = 0.0129	5e-09	–	–
x1 = 0.0168	6e-09	–	–
x1 = 0.0269	1e-08	–	–
x1 = 0.0298	–	1597.5	9.401
x1 = 0.0326	1.5e-08	–	–
x1 = 0.0454	1.7e-08	–	–
x1 = 0.0514	–	1595.7	9.774
x1 = 0.0619	2.7e-08	–	–
x1 = 0.0915	3.4e-08	–	–
x1 = 0.1017	–	1591.8	10.74
x1 = 0.1149	4e-08	–	–
x1 = 0.1375	4.4e-08	–	–
x1 = 0.1536	–	1588.7	11.8
x1 = 0.1895	5.2e-08	–	–
x1 = 0.2008	–	1586.9	12.89
x1 = 0.2539	5.9e-08	–	–
x1 = 0.293	6.4e-08	–	–
x1 = 0.2942	–	1583.5	15.32
x1 = 0.3268	6.7e-08	–	–
x1 = 0.3769	7e-08	–	–
x1 = 0.3886	–	1580.9	18.07
x1 = 0.4209	7e-08	–	–
x1 = 0.4564	7.1e-08	–	–
x1 = 0.479	–	1578.8	21.15
x1 = 0.5091	7e-08	–	–
x1 = 0.5407	6.9e-08	–	–
x1 = 0.5779	6.6e-08	–	–
x1 = 0.582	–	1577.1	24.71
x1 = 0.601	6.1e-08	–	–
x1 = 0.6363	5.6e-08	–	–
x1 = 0.6673	5.3e-08	–	–
x1 = 0.6827	–	1575.3	29.13
x1 = 0.7035	4.7e-08	–	–
x1 = 0.7347	4.2e-08	–	–
x1 = 0.7812	–	1573	36.21
x1 = 0.7879	3.3e-08	–	–
x1 = 0.822	2.8e-08	–	–
x1 = 0.8319	–	1571.6	41.2
x1 = 0.8461	2.6e-08	–	–
x1 = 0.8694	2.3e-08	–	–
x1 = 0.8947	1.8e-08	–	–
x1 = 0.9095	–	1569.4	50.56
x1 = 0.9143	1.3e-08	–	–
x1 = 0.9392	–	1568.6	54.65
x1 = 0.9428	1.1e-08	–	–
x1 = 0.9583	7e-09	–	–
x1 = 0.9749	–	1567.3	59.95
x1 = 0.9783	3e-09	–	–

OCCCCCO [1,5-pentanediol]
[1]
Conditions	mass density [kg/m3]	speed of sound [m/s]	viscosity [mPa·s]
–	974.3	1566.1	64

OCCCO [propan-1,3-diol]
[1]
Conditions	mass density [kg/m3]	speed of sound [m/s]	viscosity [mPa·s]
–	1042.7	1604.5	26.44
